Measurements from patent US20240252716A1, “SELF-ASSEMBLING NANOFIBROUS ULTRASHORT PEPTIDE HYDROGELS FOR VASCULAR TISSUE ENGINEERING” (KING ABDULLAH UNIVERSITY OF SCIENCE AND TECHNOLOGY, priority 2021, published 2024).
[ ]: non-standard residue; d: D form. Cha = N[C@@H](CC1CCCCC1)C(=O)O

Tests used:
HUVECs [1] = experiment: Endothelial cell marker expression (immunostaining); assay type: cell-based, Human; details: similar to that in Matrigel
Description: The functionality of HUVECs in different scaffolds was determined by the expression of universal endothelial cell markers, including CD34, CD146 and Von-Willebrand factor (vWF).
(§1) Immunostaining was performed after 24 h of culture. In brief, the cells were fixed with 4% paraformaldehyde solution for 30 minutes and incubated in a cold cytoskeleton buffer (3 mM MgCl2, 300 mM sucrose and 0.5% Triton X-100 in PBS solution) for 10 minutes to permeabilize the cell membranes. The permeabilised cells were incubated in blocking buffer solution (5% FBS, 0.1% Tween-20, and 0.02% sodium azide in PBS) for 30 minutes at 37° C., followed by incubation with rhodamine-phalloidin (1:300) for 1 hour at 37° C. In case of endothelial cell markers, the sample incubated with Mouse anti-Endothelial Cell CD146 ( 1/500), Rabbit anti-VWF ( 1/5000) or Mouse anti-CD31 ( 1/50) for 1 hour and followed by secondary antibody. Furthermore, the cells were incubated in DAPI for 5 minutes at room temperature to counterstain the nucleus. Finally, the cells were observed and imaged using a laser scanning confocal microscope (Zeiss® LSM 710 Inverted Confocal Microscope, Germany).

HUVECs [2] = experiment: In vitro angiogenesis study (tube-like structure formation); assay type: cell-based, Human; details: for capillary-like structure formation by HUVECs: 2-6 hours of culture, no growth factors added to peptide scaffolds; for length of tube-like structure versus Matrigel: ImageJ, peptides without growth factor; for number of junctions of tube-like structure versus Matrigel: peptide hydrogels without growth factor, Matrigel with growth factors
Description: In one embodiment, HUVEC cells form tube-like structures when cultured in peptide hydrogels. In determining the effects of peptide scaffolds in facilitating the formation of the capillary-like structure formed by HUVEC cells, there was no addition of growth factors, after cells were plated on the surfaces of IIFK (SEQ ID NO. 1) and IIZK (SEQ ID NO. 2) scaffolds and Matrigel® (control). […] However, Matrigel® scaffold contains several growth factors that stimulate capillary-like structure formation rapidly. […] Tube length and diameter were evaluated using ImageJ software. […] In our study, no growth factors were added to the peptide scaffold.
Peptide hydrogel or Matrigel® were placed in 24 well plate, and human umbilical vein endothelial cells (HUVECs) 40,000 cells/well were added on top of peptide gel or Matrigel®. The amount of solutions in each well is about 200 μl. […] Cells were then investigated using inverted microscope, and images were analyzed by Image J using Angiogenesis Analyzer.

HUVEC cells [3] = experiment: 3D cell proliferation assay (CellTiter-Glo, ATP production); assay type: cell-based, Human
Description: In one embodiment, HUVEC cells have higher proliferation cultured in peptides than in Matrigel®. Proliferation of cells cultured in both hydrogels and Matrigel® was evaluated by measuring the production of ATP after culturing for different period of time. The differences in ATP produced when cultured in different scaffolds was calculated.
HUVEC cells were encapsulated in peptide hydrogels in 96 well tissue culture plates. Peptide solution was added to the plate at 40 μL per well. HUVEC cells suspended in 2×PBS were added to each well at 40,000 cells/well and gently mixed. The final concentration of the peptide hydrogel was 1× after the addition of 2×PBS containing cells. Gelation occurred within 3-5 minutes and subsequently, the culture medium was added to the wells. At pre-determined time points, the 3D cell viability assay, live/dead assay and florescence staining were performed.
The CellTiter-Glo® luminescent 3D cell viability assay is a method to determine the number of viable cells in 3D hydrogels based on quantification of the ATP present, which signals the presence of metabolically active cells. After each time point, an equal amount of CellTiter-Glo® luminescent reagent was added to the same amount of media in each well. The contents were mixed for 5 minutes to digest the hydrogels and then incubated for 10 minutes. After incubation, the luminescence was recorded using a plate reader (PHERAstar® FS, Germany).

HUVECs [4] = experiment: Cytoskeletal (actin) staining with rhodamine-phalloidin; assay type: cell-based, Human; details: 24 h of culture
Description: In one embodiment, HUVECs grown in peptide scaffolds maintain their normal morphology and functionality. […] In the present disclosure, the cytoskeleton organization of HUVECs grown in the nanofibers scaffolds was visualized by staining the actin of cells with rhodamine-phalloidin. Cell morphology and the organization of actin structures of HUVECs grown in different scaffolds were compared and shown in FIG. 7.
as §1

HUVECs [5] = experiment: Cell attachment of HUVECs on coverslips coated with hydrogels or Matrigel; assay type: cell-based, Human; details: after 4 hours of culture
Description: Cell attachment was evaluated by seeding HUVECs on top of coverslips coated with Matrigel® (control) and different hydrogels. After incubation for 4 hours, efficient cell extension and adhesion in both control and hydrogels can be clearly seen, and also tube-like structure can be observed, as shown in FIG. 4. Furthermore, the number of cells attached was calculated for different scaffold used.

HUVEC cells [6] = experiment: LIVE/DEAD staining viability of HUVEC cells cultured in peptide hydrogels; assay type: cell-based, Human; details: cultured within hydrogel; 24 h, 4 days and 7 days; versus Matrigel
Description: Viability of HUVEC cells were evaluated by using LIVE/DEAD® staining at different time points in order to assess the compatibility of peptide scaffolds with cells. In one embodiment, the viability of HUVEC cells was determined after 24 h, 4 days and 7 days of culturing within peptide scaffolds.
In FIG. 3, for living cells were stained in green by calcein AM, while dead cells were stained in red by ethidium homodimer (EthD-1).
HUVEC cells were seeded and treated with peptides according to the protocol described above. After 24 h of incubation, the media was removed and replaced with DPBS solution containing approximately […] calcein AM and […] ethidium homodimer-1 (LIVE/DEAD® Viability/Cytotoxicity Kit, Life Technologies®) and incubated for 30 min in dark. Before imaging, the staining solution was removed and fresh DPBS was added. Stained cells were imaged with ZEISS® fluorescent microscope.
HUVEC cells were encapsulated in peptide hydrogels in 96 well tissue culture plates. Peptide solution was added to the plate at 40 μL per well. HUVEC cells suspended in 2×PBS were added to each well at 40,000 cells/well and gently mixed. The final concentration of the peptide hydrogel was 1× after the addition of 2×PBS containing cells. […] At pre-determined time points, the 3D cell viability assay, live/dead assay and florescence staining were performed.

[7] = Peptide hydrogel preparation / gelation; assay type: physicochemical; details: water, then PBS to 1x final
Source text: The solution-gel transition of both peptides (IIFK (SEQ ID NO. 1) and IIZK (SEQ ID NO. 2)) were induced by the addition of 1×PBS. Scanning electron microscopy (SEM) and transmission electron microscopy (TEM) examinations also confirmed the self-assembling nanofiber formations, as shown in FIGS. 1 and 2. The scale bars are 1 μm in FIGS. 1 and 200 nm in FIG. 2.
The tetramer self-assembling peptides Ac-IIZK (SEQ ID NO. 2)-NH2 (Ac-Ile-Val-Cha-Lys-NH2) and Ac-IIFK (SEQ ID NO. 1)-NH2 (Ac-Ile-Val-Phe-Lys-N H2) were manually synthesized by using solid phase peptide synthesis and purified to above 95% via HPLC. Amino acid and peptide content analysis were performed. Lyophilized peptide was dissolved in milliQ® water and vortexed to get a homogenous solution. Subsequently, 10×phosphate buffered saline at the final concentration of 1× was added to the peptide solution and vortexed shortly. Gelation occurred within few seconds in IIZK (SEQ ID NO. 2) at I mg/mL and IIFK (SEQ ID NO. 1) at 2 mg/mL peptide concentration.
HUVEC cells were encapsulated in peptide hydrogels in 96 well tissue culture plates. Peptide solution was added to the plate at 40 μL per well. HUVEC cells suspended in 2×PBS were added to each well at 40,000 cells/well and gently mixed. […] At pre-determined time points, the 3D cell viability assay, live/dead assay and florescence staining were performed.

Substance	expression of endothelial cell markers CD34, CD146 and vWF (HUVECs [1])	capillary-like structure formation by HUVECs (HUVECs [2])	length of tube-like structure versus Matrigel (HUVECs [2])	number of junctions of tube-like structure versus Matrigel (HUVECs [2])	ATP production by HUVEC cells versus Matrigel (HUVEC cells [3]; after 24 h of culture)	ATP production by HUVEC cells versus Matrigel (HUVEC cells [3]; after 7 day of culture)	cell morphology and actin organization (HUVECs [4])	number of attached cells versus Matrigel (HUVECs [5])	viability of HUVEC cells (LIVE/DEAD staining) compared to Matrigel (HUVEC cells [6])	peptide concentration at which gelation occurred within few seconds [7] [mg/mL]
Ac-IV[Cha]K-NH2 [IIZK]	well expressed	formed capillary-like structure networks	no significant difference	comparable	no significant difference	significantly higher	fibroblastic morphology	no significant difference	higher viability	
Ac-Ile-Val-Phe-Lys-N H2 [IIFK]	well expressed	formed capillary-like structure networks	no significant difference	comparable	no significant difference	significantly higher	fibroblastic morphology	no significant difference	higher viability	2
